Source: US20070178152A1, “Carboxyalkylcellulose esters for administration of poorly soluble pharmaceutically active agents” (priority 2005, published 2007)
Values joined by “and” are separate entries in the source; they are usually repeats but may differ in a detail not shown here. Equal values may be shown once.

Columns and labels:
[1] = Determination of % crystallinity by X-ray; assay type: physicochemical
Experimental: Determination of % Crystallinity by X-ray.
All samples were run on a Scintag PAD V diffractometer using Cu K-alpha X-ray.
For each polymer or drug used in this study a neat sample was obtained. A known weight of each species was mixed with a know weight of corundum, Al2O3, diffraction standard. Each mixture was pelletized with a hydraulic press and the XRD pattern of the pellet was measured from 5 to 45 degree scattering angle. A diffraction response factor, R, was calculated for each species according to: R=wc/ws*ls/lc where wc id the weight fraction of corundum, ws is the weight fraction of the species of interest, lc is the net intensity of the major diffraction line of corrundum and is the net intensity of the major diffraction line of the drug or in the case of the polymers, the net intensity of the maximum of the amorphous scattering curve.
Samples were pelletized with a hydraulic press and the XRD pattern of the pellet was measured from 5 to 45 degree scattering angle. The net intensity of the maximum of the amorphous scatter from the polymer, lp, and the net intensity of the major diffraction line of the drug, ld, were determined from the resulting scattering curve. The wt % crystalline drug was calculated from: % crystalline drug=(ld/Rd)/(ld/Rd+lp/Rp)×100 where Rd is the response factor for the drug and Rp is the response factor for the polymer.

[2] = Dissolution of carbamazepine and carbamazepine solid dispersions in SIFsp, pH 6.8; assay type: physicochemical; conditions: for % Drug Released / Total Drug Released: SIFsp pH 6.8, gelatin capsule; for Average % Released: carbamazepine
Experimental: All dissolution studies were performed on a Varian VK7025 Dissolution Apparatus equipped with a Varian VK8000 Fraction Collector
HPLC Methods for Evaluating Dissolution Aliquots:
Determination of Weight % Phenytoin, Carbamazepine, Glyburide, or Griseofulvin.
Mobile Phase: 55% acetonitrile/45% ammonium acetate buffer (2.6 g NH4OAc/L H2O with pH adjusted to pH˜5.25 with glacial acetic acid)
Column: Agilent Eclipse XDB-C8, 4.6 mm×150 mm×5 μm
Detection: UV 254 nm (UV 214 nm can also be used for phenytoin or carbamazepine, UV 291 nm can also be used for griseofulvin); typically five signals were selected from UV 214 nm, 222 nm, 254 nm, 287 nm, 291 nm, and/or 325 nm were collected for each sample.
Simulated Intestinal Fluid, without pancreatin, pH 6.8 (SIFsp, pH 6.8)—Added monobasic potassium phosphate (KH2PO4, 34 g) to a 4000-mL beaker. Added deionized/polished water (2000 mL) and mixed using a magnetic stir bar until the KH2PO4 is completely dissolved. Added 0.2 N sodium hydroxide (NaOH, 590 mL) and stirred. The pH was adjusted to pH 6.8±0.1 using 0.2 N NaOH. The sample was diluted with deionized/polished water to a final volume of 5000 mL.
The SIFsp media was heated to ˜45° C. in four 2000-mL Kimax bottles in an oven. The sample was degassed according to USP protocol by filtering through a 0.45 μm membrane filter (Pall, Supor-450, 0.45 μm, 90 mm, part # 60200, Lot # 43214) and stirring under vacuum for 5 minutes.
Dissolution Conditions #1.
Dissolution Conditions #2.
These Examples describe the dissolution of carbamazepine and carbamazepine solid dispersions by evaluating the samples described in Examples 91-99. SlFsp, pH 6.8 media preparation was described in the Materials and Methods section.
Samples were transferred into gelatin capsules (Capsugel, size OCS, Lot #624282) using a manual single capsule filler. The weight of each capsule and the amount of sample added are found in Table 17 (Capsule Description).

## O=C1NC(=O)C(c2ccccc2)(c2ccccc2)N1 [Example 78, Phenytoin]
[1]; phenytoin/polymer solid dispersions and physical blends (Table 6)
  wt % Crystal (X-ray): 100 wt %

## COc1ccc(Cl)cc1C(=O)NCCc1ccc(S(=O)(=O)NC(=O)NC2CCCCC2)cc1 [Example 113, Glyburide]
[1]; glyburide/CMCAB solid dispersions and physical blends (Table 10)
  wt % Crystal (X-ray): 100 wt %

## NC(=O)N1c2ccccc2C=Cc2ccccc21 [Example 95, Carbamazepine]
[2]; 20 min
  % Drug Released: 33.9384% and 38.8298%
  Total Drug Released: 9.4293 mg and 10.5423 mg
[2]; 30 min
  % Drug Released: 44.1249% and 55.2412%
  Total Drug Released: 12.2594 mg and 14.9980 mg
[2]; 60 min
  % Drug Released: 59.6056% and 68.7527%
  Total Drug Released: 16.5605 mg and 18.6664 mg
[2]; 120 min
  % Drug Released: 68.4090% and 79.5856%
  Total Drug Released: 19.0064 mg and 21.6075 mg
[2]; 180 min
  % Drug Released: 67.5738% and 72.0943%
  Total Drug Released: 18.7744 mg and 19.5736 mg
[2]; 240 min
  % Drug Released: 67.7652% and 72.6520%
  Total Drug Released: 18.8275 mg and 19.7250 mg
[2]; 300 min
  % Drug Released: 67.6548% and 72.9162%
  Total Drug Released: 18.7969 mg and 19.7968 mg
[2]; 360 min
  % Drug Released: 72.4305% and 71.9068%
  Total Drug Released: 20.1237 mg and 19.5227 mg
[2]; 450 min
  % Drug Released: 67.4606% and 70.7122%
  Total Drug Released: 18.7429 mg and 19.1984 mg
[2]; SIFsp pH 6.8, 10 min
  Average % Released: 6.7739%
[2]; SIFsp pH 6.8, 20 min
  Average % Released: 36.3841%
[2]; SIFsp pH 6.8, 30 min
  Average % Released: 49.6830%
[2]; SIFsp pH 6.8, 60 min
  Average % Released: 64.1792%
[2]; SIFsp pH 6.8, 120 min
  Average % Released: 73.9973%
[2]; SIFsp pH 6.8, 180 min
  Average % Released: 69.8341%
[2]; SIFsp pH 6.8, 240 min
  Average % Released: 70.2086%
[2]; SIFsp pH 6.8, 300 min
  Average % Released: 70.2855%
[2]; SIFsp pH 6.8, 360 min
  Average % Released: 72.1686%
[2]; SIFsp pH 6.8, 450 min
  Average % Released: 69.0864%
[1]; carbamazepine/CMCAB solid dispersions and physical blends (Table 8)
  wt % Crystal (X-ray): 100 wt %
